Experimental data from ChEMBL document CHEMBL4004803, “Syntheses and antibacterial activity of soluble 9-bromo substituted indolizinoquinoline-5,12-dione derivatives” (Eur J Med Chem, 2017).

Key:
[1] = system: Staphylococcus aureus; assay: Antibacterial activity against methicillin-resistant Staphylococcus aureus 125025 clinical isolate after 20 to 24 hrs by two-fold microdilution method; format: functional
[2] = system: Staphylococcus aureus; assay: Antibacterial activity against methicillin-resistant Staphylococcus aureus 122710-2 clinical isolate after 20 to 24 hrs by two-fold microdilution method; format: functional
[3] = system: Staphylococcus aureus; assay: Antibacterial activity against methicillin-resistant Staphylococcus aureus 10281-2 clinical isolate after 20 to 24 hrs by two-fold microdilution method; format: functional
[4] = system: Staphylococcus aureus; assay: Antibacterial activity against methicillin-resistant Staphylococcus aureus 20534 clinical isolate after 20 to 24 hrs by two-fold microdilution method; format: functional
[5] = system: Staphylococcus aureus; assay: Antibacterial activity against methicillin-resistant Staphylococcus aureus 215073 clinical isolate after 20 to 24 hrs by two-fold microdilution method; format: functional
[6] = system: Staphylococcus aureus; assay: Antibacterial activity against methicillin-resistant Staphylococcus aureus 109244 clinical isolate after 20 to 24 hrs by two-fold microdilution method; format: functional
[7] = system: Staphylococcus aureus; assay: Antibacterial activity against methicillin-resistant Staphylococcus aureus 1212057-1 clinical isolate after 20 to 24 hrs by two-fold microdilution method; format: functional
[8] = system: Staphylococcus aureus; assay: Antibacterial activity against methicillin-resistant Staphylococcus aureus 822030 clinical isolate after 20 to 24 hrs by two-fold microdilution method; format: functional
[9] = system: Staphylococcus aureus; assay: Antibacterial activity against methicillin-resistant Staphylococcus aureus 1025022 clinical isolate after 20 to 24 hrs by two-fold microdilution method; format: functional
[10] = system: Staphylococcus aureus; assay: Antibacterial activity against methicillin-resistant Staphylococcus aureus 1103006 clinical isolate after 20 to 24 hrs by two-fold microdilution method; format: functional
[11] = system: Staphylococcus aureus; assay: Antibacterial activity against methicillin-resistant Staphylococcus aureus 102849 clinical isolate after 20 to 24 hrs by two-fold microdilution method; format: functional
[12] = system: Staphylococcus aureus; assay: Antibacterial activity against methicillin-resistant Staphylococcus aureus 1111047-1 clinical isolate after 20 to 24 hrs by two-fold microdilution method; format: functional
[13] = system: Staphylococcus aureus; assay: Antibacterial activity against methicillin-resistant Staphylococcus aureus 111423 clinical isolate after 20 to 24 hrs by two-fold microdilution method; format: functional
[14] = system: Staphylococcus aureus; assay: Antibacterial activity against methicillin-resistant Staphylococcus aureus 831024 clinical isolate after 20 to 24 hrs by two-fold microdilution method; format: functional
[15] = system: Staphylococcus aureus; assay: Antibacterial activity against methicillin-resistant Staphylococcus aureus 1106003 clinical isolate after 20 to 24 hrs by two-fold microdilution method; format: functional
[16] = system: Staphylococcus aureus; assay: Antibacterial activity against methicillin-resistant Staphylococcus aureus 123152 clinical isolate after 20 to 24 hrs by two-fold microdilution method; format: functional
[17] = system: Staphylococcus aureus; assay: Antibacterial activity against methicillin-resistant Staphylococcus aureus 1211026 clinical isolate after 20 to 24 hrs by two-fold microdilution method; format: functional
[18] = system: Staphylococcus aureus; assay: Antibacterial activity against methicillin-resistant Staphylococcus aureus 519238 clinical isolate after 20 to 24 hrs by two-fold microdilution method; format: functional
[19] = system: Staphylococcus aureus; assay: Antibacterial activity against methicillin-resistant Staphylococcus aureus 121969 clinical isolate after 20 to 24 hrs by two-fold microdilution method; format: functional
[20] = system: Staphylococcus aureus; assay: Antibacterial activity against methicillin-resistant Staphylococcus aureus 130031 clinical isolate after 20 to 24 hrs by two-fold microdilution method; format: functional
[21] = system: Staphylococcus aureus; assay: Antibacterial activity against methicillin-resistant Staphylococcus aureus 1212221 clinical isolate after 20 to 24 hrs by two-fold microdilution method; format: functional
[22] = system: Staphylococcus aureus; assay: Antibacterial activity against methicillin-resistant Staphylococcus aureus 111625 clinical isolate after 20 to 24 hrs by two-fold microdilution method; format: functional
[23] = system: Staphylococcus aureus; assay: Antibacterial activity against methicillin-resistant Staphylococcus aureus 11819 clinical isolate after 20 to 24 hrs by two-fold microdilution method; format: functional
[24] = system: Staphylococcus aureus; assay: Antibacterial activity against methicillin-resistant Staphylococcus aureus 120827 clinical isolate after 20 to 24 hrs by two-fold microdilution method; format: functional
[25] = system: Staphylococcus aureus; assay: Antibacterial activity against methicillin-resistant Staphylococcus aureus 1207026 clinical isolate after 20 to 24 hrs by two-fold microdilution method; format: functional
[26] = system: Staphylococcus aureus; assay: Antibacterial activity against methicillin-resistant Staphylococcus aureus 912014 clinical isolate after 20 to 24 hrs by two-fold microdilution method; format: functional
[27] = system: Staphylococcus aureus; assay: Antibacterial activity against methicillin-resistant Staphylococcus aureus 504008 clinical isolate after 20 to 24 hrs by two-fold microdilution method; format: functional
[28] = system: Staphylococcus aureus; assay: Antibacterial activity against methicillin-resistant Staphylococcus aureus 1019240 clinical isolate after 20 to 24 hrs by two-fold microdilution method; format: functional
[29] = system: Staphylococcus aureus; assay: Antibacterial activity against methicillin-resistant Staphylococcus aureus GLH15 clinical isolate after 20 to 24 hrs by two-fold microdilution method; format: functional
[30] = system: Staphylococcus aureus; assay: Antibacterial activity against methicillin-resistant Staphylococcus aureus 221014 clinical isolate after 20 to 24 hrs by two-fold microdilution method; format: functional
[31] = system: Staphylococcus aureus; assay: Antibacterial activity against methicillin-resistant Staphylococcus aureus 724244 clinical isolate after 20 to 24 hrs by two-fold microdilution method; format: functional
[32] = system: Staphylococcus aureus; assay: Antibacterial activity against methicillin-resistant Staphylococcus aureus 110328-1 clinical isolate after 20 to 24 hrs by two-fold microdilution method; format: functional
[33] = system: Staphylococcus aureus; assay: Antibacterial activity against methicillin-resistant Staphylococcus aureus 11703 clinical isolate after 20 to 24 hrs by two-fold microdilution method; format: functional
[34] = system: Staphylococcus aureus; assay: Antibacterial activity against methicillin-resistant Staphylococcus aureus 614019 clinical isolate after 20 to 24 hrs by two-fold microdilution method; format: functional
[35] = system: Staphylococcus aureus; assay: Antibacterial activity against methicillin-resistant Staphylococcus aureus 316038 clinical isolate after 20 to 24 hrs by two-fold microdilution method; format: functional
[36] = system: Staphylococcus aureus; assay: Antibacterial activity against methicillin-resistant Staphylococcus aureus 625032 clinical isolate after 20 to 24 hrs by two-fold microdilution method; format: functional
[37] = system: Staphylococcus aureus; assay: Antibacterial activity against methicillin-resistant Staphylococcus aureus 202045 clinical isolate after 20 to 24 hrs by two-fold microdilution method; format: functional
[38] = system: Staphylococcus aureus; assay: Antibacterial activity against methicillin-resistant Staphylococcus aureus 121026 clinical isolate after 20 to 24 hrs by two-fold microdilution method; format: functional
[39] = system: Staphylococcus aureus; assay: Antibacterial activity against methicillin-resistant Staphylococcus aureus 1108204 clinical isolate after 20 to 24 hrs by two-fold microdilution method; format: functional
[40] = system: Staphylococcus aureus; assay: Antibacterial activity against methicillin-resistant Staphylococcus aureus 519028 clinical isolate after 20 to 24 hrs by two-fold microdilution method; format: functional
[41] = system: Staphylococcus aureus; assay: Antibacterial activity against methicillin-resistant Staphylococcus aureus 110432 clinical isolate after 20 to 24 hrs by two-fold microdilution method; format: functional
[42] = system: Staphylococcus aureus; assay: Antibacterial activity against methicillin-resistant Staphylococcus aureus 1026211 clinical isolate after 20 to 24 hrs by two-fold microdilution method; format: functional
[43] = system: Staphylococcus aureus; assay: Antibacterial activity against methicillin-resistant Staphylococcus aureus 1216052 clinical isolate after 20 to 24 hrs by two-fold microdilution method; format: functional
[44] = system: Staphylococcus aureus; assay: Antibacterial activity against methicillin-resistant Staphylococcus aureus 1024010 clinical isolate after 20 to 24 hrs by two-fold microdilution method; format: functional
[45] = system: Staphylococcus aureus; assay: Antibacterial activity against methicillin-resistant Staphylococcus aureus 122045 clinical isolate after 20 to 24 hrs by two-fold microdilution method; format: functional
[46] = Solubility of the compound in water at 25 degC measured after shaking for 4 hrs by UV method; format: physicochemical; settings: for solubility thermodynamic at 4 h: water
[47] = system: Staphylococcus aureus; assay: Antibacterial activity against methicillin-resistant Staphylococcus aureus 112106 clinical isolate after 20 to 24 hrs by two-fold microdilution method; format: functional

O=C1c2cccnc2C(=O)c2c1c(C(=O)OCCCCN1CCOCC1)c1ccc(Br)cn21
16 µg/mL: MIC [15]
0.063 µg/mL: MIC [5] | MIC [42]
0.5 µg/mL: MIC [3] | MIC [8] | MIC [11] | MIC [14] | MIC [18] | MIC [22] | MIC [25] | MIC [26] | MIC [33] | MIC [34] | MIC [36] | MIC [39] | MIC [40] | MIC [44] | MIC [47]
1 µg/mL: MIC [4] | MIC [12] | MIC [19] | MIC [20] | MIC [28] | MIC [30]
> 16 µg/mL: MIC [10]
≤ 0.0078 µg/mL: MIC [32]
8 µg/mL: MIC [13] | MIC [43]
0.125 µg/mL: MIC [9] | MIC [17] | MIC [21] | MIC [23] | MIC [31] | MIC [45]
0.25 µg/mL: MIC [1] | MIC [2] | MIC [6] | MIC [7] | MIC [16] | MIC [24] | MIC [27] | MIC [29] | MIC [35] | MIC [37] | MIC [38] | MIC [41]
Insoluble: solubility ([46]; buffer, 4 h)

CN1CCN(CCCCCCOC(=O)c2c3c(n4cc(Br)ccc24)C(=O)c2ncccc2C3=O)CC1
16 µg/mL: MIC [13] | MIC [43]
0.25 µg/mL: MIC [8] | MIC [16] | MIC [18] | MIC [20] | MIC [28] | MIC [33] | MIC [37] | MIC [47]
0.125 µg/mL: MIC [4] | MIC [6] | MIC [9] | MIC [11] | MIC [17] | MIC [19] | MIC [22] | MIC [27] | MIC [29] | MIC [30] | MIC [34] | MIC [36] | MIC [40] | MIC [41] | MIC [44]
0.5 µg/mL: MIC [39]
1 µg/mL: MIC [12]
0.031 µg/mL: MIC [7] | MIC [26] | MIC [31] | MIC [38]
0.016 µg/mL: MIC [24]
2060 µg/mL: solubility thermodynamic at 4 h [46]
≤ 0.0078 µg/mL: MIC [1] | MIC [3] | MIC [14] | MIC [32] | MIC [42]
0.063 µg/mL: MIC [2] | MIC [5] | MIC [21] | MIC [23] | MIC [25] | MIC [35] | MIC [45]
> 16 µg/mL: MIC [10] | MIC [15]

O=C1c2cccnc2C(=O)c2c1c(C(=O)OCCCCCCN1CCCCC1)c1ccc(Br)cn21
0.063 µg/mL: MIC [3] | MIC [9] | MIC [11] | MIC [14] | MIC [19] | MIC [22] | MIC [23] | MIC [25] | MIC [26] | MIC [27] | MIC [29] | MIC [33] | MIC [34] | MIC [39] | MIC [41] | MIC [42] | MIC [44] | MIC [47]
> 16 µg/mL: MIC [10] | MIC [13] | MIC [43]
0.031 µg/mL: MIC [2] | MIC [6] | MIC [17] | MIC [21] | MIC [24] | MIC [31] | MIC [35] | MIC [38] | MIC [45]
0.25 µg/mL: MIC [12] | MIC [36]
≤ 0.0078 µg/mL: MIC [37]
1980 µg/mL: solubility thermodynamic at 4 h [46]
16 µg/mL: MIC [15]
0.016 µg/mL: MIC [5] | MIC [7]
0.125 µg/mL: MIC [1] | MIC [4] | MIC [8] | MIC [16] | MIC [18] | MIC [20] | MIC [28] | MIC [30] | MIC [32] | MIC [40]
